Target: T1, EZH2 (Homo sapiens, UniProt Q15910)
T1 construct: Protocol of the Cellular Assay of Target Protein Degradation (VCaP Cells, ELISA); endogenous in cells; host or cells: VCaP cells
Experiment: Cellular assay of target protein degradation (VCaP cells, ELISA)
Format: cell-based
Conditions: 4 hours, protein degradation range at indicated concentration (relative to DMSO control)
Summary of the method: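 VCaP cells grown ≥3 days in RPMI with 5% CSS, then dosed with compounds in 0.1% DMSO for 4 h. Lysates analysed by sandwich ELISA for EZH2 with TMB readout at 450 nm, 562 nm used for background subtraction.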

T1 sequence (Q15910 whole entry): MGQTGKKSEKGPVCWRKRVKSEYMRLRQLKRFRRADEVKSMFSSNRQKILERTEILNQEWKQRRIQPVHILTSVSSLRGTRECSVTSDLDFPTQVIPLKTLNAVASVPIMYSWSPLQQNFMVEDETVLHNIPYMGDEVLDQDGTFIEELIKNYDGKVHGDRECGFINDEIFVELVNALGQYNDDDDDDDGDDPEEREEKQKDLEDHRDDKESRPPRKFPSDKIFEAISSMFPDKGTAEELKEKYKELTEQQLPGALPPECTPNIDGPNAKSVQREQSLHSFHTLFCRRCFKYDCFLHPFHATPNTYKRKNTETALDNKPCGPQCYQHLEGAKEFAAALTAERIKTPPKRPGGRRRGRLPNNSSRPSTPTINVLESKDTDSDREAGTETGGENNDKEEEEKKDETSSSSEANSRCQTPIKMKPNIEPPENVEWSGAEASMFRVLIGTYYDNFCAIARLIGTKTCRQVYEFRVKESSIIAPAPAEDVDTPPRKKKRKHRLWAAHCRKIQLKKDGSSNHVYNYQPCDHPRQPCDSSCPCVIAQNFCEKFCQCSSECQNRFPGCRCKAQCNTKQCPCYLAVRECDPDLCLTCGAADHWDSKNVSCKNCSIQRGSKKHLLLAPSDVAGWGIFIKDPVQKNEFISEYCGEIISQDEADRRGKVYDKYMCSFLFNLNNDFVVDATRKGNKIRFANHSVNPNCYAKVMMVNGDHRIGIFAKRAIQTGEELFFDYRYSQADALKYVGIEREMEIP
T1 sequence (O75530 whole entry partner): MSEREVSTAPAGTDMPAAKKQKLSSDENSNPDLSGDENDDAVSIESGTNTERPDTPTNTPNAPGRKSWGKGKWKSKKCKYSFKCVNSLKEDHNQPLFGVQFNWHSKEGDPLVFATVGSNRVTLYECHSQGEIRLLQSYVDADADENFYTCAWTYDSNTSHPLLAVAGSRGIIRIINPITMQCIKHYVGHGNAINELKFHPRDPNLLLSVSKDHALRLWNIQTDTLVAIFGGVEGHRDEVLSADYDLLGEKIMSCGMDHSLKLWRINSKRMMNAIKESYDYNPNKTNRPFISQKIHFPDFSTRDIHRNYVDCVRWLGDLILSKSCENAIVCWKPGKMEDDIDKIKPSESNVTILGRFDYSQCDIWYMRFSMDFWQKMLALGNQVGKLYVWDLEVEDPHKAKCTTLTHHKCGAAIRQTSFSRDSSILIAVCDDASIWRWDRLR
T1 sequence (Q15022 whole entry partner): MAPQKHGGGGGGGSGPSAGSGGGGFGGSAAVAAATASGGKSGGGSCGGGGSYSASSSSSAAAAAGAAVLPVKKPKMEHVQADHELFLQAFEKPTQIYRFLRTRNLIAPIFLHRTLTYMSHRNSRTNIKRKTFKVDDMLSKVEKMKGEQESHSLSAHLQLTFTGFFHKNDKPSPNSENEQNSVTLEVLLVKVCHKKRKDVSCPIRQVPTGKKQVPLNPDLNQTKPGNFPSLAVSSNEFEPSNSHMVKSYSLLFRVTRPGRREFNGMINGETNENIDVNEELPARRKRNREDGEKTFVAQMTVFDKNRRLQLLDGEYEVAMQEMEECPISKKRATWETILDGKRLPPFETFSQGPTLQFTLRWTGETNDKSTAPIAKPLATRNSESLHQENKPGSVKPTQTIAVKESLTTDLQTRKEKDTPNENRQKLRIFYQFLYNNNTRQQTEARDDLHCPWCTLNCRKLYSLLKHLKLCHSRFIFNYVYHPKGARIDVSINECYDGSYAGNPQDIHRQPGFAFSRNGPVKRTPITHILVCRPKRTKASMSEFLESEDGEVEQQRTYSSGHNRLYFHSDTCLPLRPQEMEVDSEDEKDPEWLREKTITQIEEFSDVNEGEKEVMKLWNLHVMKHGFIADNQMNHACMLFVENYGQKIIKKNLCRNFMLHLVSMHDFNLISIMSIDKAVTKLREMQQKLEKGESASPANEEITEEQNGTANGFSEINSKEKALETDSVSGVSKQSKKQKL

Row | SMILES | percent target protein degradation class
1 | CCN(c1cc(-c2ccc(CCOCCOc3cc(C(C(=O)N4C[C@H](O)C[C@H]4C(=O)N[C@@H](C)c4ccc(-c5scnc5C)cc4)C(C)C)on3)cc2)cc(C(=O)NCc2c(C)cc(C)[nH]c2=O)c1C)C1CCOCC1 (stereo partly drawn) [Compound 110, (2S,4R)-1-(2-(3-(2-(2-(3′-(((4,6-dimethyl-2-oxo-1,2-dihydropyridin-3-yl)methyl)carbamoyl)-5′-(ethyl(tetrahydro-2H-pyran-4-yl)amino)-4′-methyl-[1,1′-biphenyl]-4-yl)ethoxy)ethoxy)isoxazol-5-yl)-3-methylbutanoyl)-4-hydroxy-N-((S)-1-(4-(4-methylthiazol-5-yl)phenyl)ethyl)pyrrolidine-2-carboxamide] | A (A = degradation more than 60%)
2 | CCN(c1cc(-c2ccc(OCCOCCOCCOc3ccc(-c4csc([C@@H]5CCCN5C(=O)[C@@H](NC(=O)[C@H](C)NC)C5CCCCC5)n4)c4ccccc34)cc2)cc(C(=O)NCc2c(C)cc(C)[nH]c2=O)c1C)C1CCOCC1 [Compound 28, 5-{4-[2-(2-{2-[(4-{2-[(2S)-1-[(2S)-2-cyclohexyl-2-[(2S)-2-(methylamino)propanamido]acetyl]pyrrolidin-2-yl]-1,3-thiazol-4-yl}naphthalen-1-yl)oxy]ethoxy}ethoxy)ethoxy]phenyl}-N-[(4,6-dimethyl-2-oxo-1,2-dihydropyridin-3-yl)methyl]-3-[ethyl(oxan-4-yl)amino]-2-methylbenzamide] | B (B = degradation between 30% and 60%)
3 | Cc1cc(C)c(CNC(=O)c2cc(-c3ccc(CN4CCN(CCOCCCCCOCCCCCOCC(=O)N[C@H](C(=O)N5C[C@H](O)C[C@H]5C(=O)NCc5ccc(-c6scnc6C)cc5)C(C)(C)C)CC4)cc3)cc3c2ccn3C2CCCC2)c(=O)[nH]1 [Compound 6, 1-cyclopentyl-N-[(4,6-dimethyl-2-oxo-1,2-dihydropyridin-3-yl)methyl]-6-[4-[(4-{2-[(5-{[5-({[(2S)-1-[(2S,4R)-4-hydroxy-2-({[4-(4-methyl-1,3-thiazol-5-yl)phenyl]methyl}carbamoyl)pyrrolidin-1-yl]-3,3-dimethyl-1-oxobutan-2-yl]carbamoyl}methoxy)pentyl]oxy}pentyl)oxy]ethyl}piperazin-1-yl)methyl]phenyl}-1H-indole-4-carboxamide] | B (B = degradation between 30% and 60%)
4 | CCN(c1cc(-c2ccc(CN3CCN(CC4CCN(c5ccc6c(c5)C(=O)N(C5CCC(=O)NC5=O)C6=O)CC4)CC3)cc2)cc(C(=O)NCc2c(C)cc(C)[nH]c2=O)c1C)C1CCOCC1 (centres unmarked) [Compound 113, N-((4,6-dimethyl-2-oxo-1,2-dihydropyridin-3-yl)methyl)-4′-((4-((1-(2-(2,6-dioxopiperidin-3-yl)-1,3-dioxoisoindolin-5-yl)piperidin-4-yl)methyl)piperazin-1-yl)methyl)-5-(ethyl(tetrahydro-2H-pyran-4-yl)amino)-4-methyl-[1,1′-biphenyl]-3-carboxamide] | B (B = degradation between 30% and 60%)
5 | Cc1cc(C)c(CNC(=O)c2cc(-c3ccc(CN4CCN(CCOCCOCC(=O)N[C@H](C(=O)N5C[C@H](O)C[C@H]5C(=O)NCc5ccc(-c6scnc6C)cc5)C(C)(C)C)CC4)cc3)cc3c2ccn3C2CCCC2)c(=O)[nH]1 [Compound 2, 1-cyclopentyl-N-[(4,6-dimethyl-2-oxo-1,2-dihydropyridin-3-yl)methyl]-6-{4-[(4-{2-[2-({[(2S)-1-[(2S,4R)-4-hydroxy-2-({[4-(4-methyl-1,3-thiazol-5-yl)phenyl]methyl}carbamoyl)pyrrolidin-1-yl]-3,3-dimethyl-1-oxobutan-2-yl]carbamoyl}methoxy)ethoxy]ethyl)piperazin-1-yl)methyl]phenyl}-1H-indole-4-carboxamide] | B (B = degradation between 30% and 60%)
6 | CCN(c1cc(-c2cccc(OCCOCCOCCOCCOCCOCCNc3cccc4c3C(=O)N(C3CCC(=O)NC3=O)C4=O)c2)cc(C(=O)NCc2c(C)cc(C)[nH]c2=O)c1C)C1CCOCC1 (centres unmarked) [Compound 21, N-[(4,6-dimethyl-2-oxo-1,2-dihydropyridin-3-yl)methyl]-5-[3-({1-[2-(2,6-dioxopiperidin-3-yl)-1,3-dioxo-2,3-dihydro-1H-isoindol-4-yl]-4,7,10,13,16-pentaoxa-1-azaoctadecan-18-yl}oxy)phenyl]-3-[ethyl(oxan-4-yl)amino]-2-methylbenzamide] | B (B = degradation between 30% and 60%)
7 | CCN(c1cc(-c2ccc(OCCCCOc3ccc4c(c3)C(=O)N(C3CCC(=O)NC3=O)C4=O)cc2)cc(C(=O)NCc2c(C)cc(C)[nH]c2=O)c1C)C1CCOCC1 (centres unmarked) [Compound 60, N-[(4,6-dimethyl-2-oxo-1,2-dihydropyridin-3-yl)methyl]-5-[4-(4-{[2-(2,6-dioxopiperidin-3-yl)-1,3-dioxo-2,3-dihydro-1H-isoindol-5-yl]oxy}butoxy)phenyl]-3-[ethyl(oxan-4-yl)amino]-2-methylbenzamide] | A (A = degradation more than 60%)
8 | CCN(c1cc(-c2ccc(OCCCOc3ccc4c(c3)C(=O)N([C@@H](C(=O)N3C[C@H](O)C[C@H]3C(=O)N[C@@H](C)c3ccc(-c5scnc5C)cc3)C(C)C)C4)cc2)cc(C(=O)NCc2c(C)cc(C)[nH]c2=O)c1C)C1CCOCC1 [Compound 97, (2S,4R)-1-((R)-2-(6-(3-((3′-(((4,6-dimethyl-2-oxo-1,2-dihydropyridin-3-yl)methyl)carbamoyl)-5′-(ethyl(tetrahydro-2H-pyran-4-yl)amino)-4′-methyl-[1,1′-biphenyl]-4-yl)oxy)propoxy)-1-oxoisoindolin-2-yl)-3-methylbutanoyl)-4-hydroxy-N-((S)-1-(4-(4-methylthiazol-5-yl)phenyl)ethyl)pyrrolidine-2-carboxamide] | B (B = degradation between 30% and 60%)
9 | CCN(c1cc(-c2ccc(OCCOCCOCCOCCOCCOCCOCC(=O)N[C@H](C(=O)N3C[C@H](O)C[C@H]3C(=O)NCc3ccc(-c4scnc4C)cc3)C(C)(C)C)cc2)cc(C(=O)NCc2c(C)cc(C)[nH]c2=O)c1C)C1CCOCC1 [Compound 16, (2S,4R)-1-[(2S)-2-{1-[4-(3-{[(4,6-dimethyl-2-oxo-1,2-dihydropyridin-3-yl)methyl]carbamoyl}-5-[ethyl(oxan-4-yl)amino]-4-methylphenyl)phenyl]-1,4,7,10,13,16,19-heptaoxahenicosan-21-amido}-3,3-dimethylbutanoyl]-4-hydroxy-N-{[4-(4-methyl-1,3-thiazol-5-yl)phenyl]methyl}pyrrolidine-2-carboxamide] | B (B = degradation between 30% and 60%)
10 | CCN(c1cc(-c2ccc(OCCCOCCOCC(=O)N[C@H](C(=O)N3C[C@H](O)C[C@H]3C(=O)NCc3ccc(-c4scnc4C)cc3)C(C)(C)C)cc2)cc(C(=O)NCc2c(C)cc(C)[nH]c2=O)c1C)C1CCOCC1 [Compound 45, (2S,4R)-1-[(2S)-2-[2-(2-{3-[4-(3-{[(4,6-dimethyl-2-oxo-1,2-dihydropyridin-3-yl)methyl]carbamoyl}-5-[ethyl(oxan-4-yl)amino]-4-methylphenyl)phenoxy]propoxy}ethoxy)acetamido]-3,3-dimethylbutanoyl]-4-hydroxy-N-{[4-(4-methyl-1,3-thiazol-5-yl)phenyl]methyl}pyrrolidine-2-carboxamide] | B (B = degradation between 30% and 60%)
11 | CCN(c1cc(-c2ccc(OCCCCOc3ccc4c(c3)C(=O)N([C@H](C(=O)N3C[C@H](O)C[C@H]3C(=O)N[C@@H](C)c3ccc(-c5scnc5C)cc3)C(C)C)C4)cc2)cc(C(=O)NCc2c(C)cc(C)[nH]c2=O)c1C)C1CCOCC1 [Compound 102] | B (B = degradation between 30% and 60%)
12 | CCN(c1cc(-c2ccc(OCCOCCOCCOCCOCCNc3cccc4c3C(=O)N(C3CCC(=O)NC3=O)C4=O)cc2)cc(C(=O)NCc2c(C)cc(C)[nH]c2=O)c1C)C1CCOCC1 (centres unmarked) [Compound 18, N-[(4,6-dimethyl-2-oxo-1,2-dihydropyridin-3-yl)methyl]-5-[4-({1-[2-(2,6-dioxopiperidin-3-yl)-1,3-dioxo-2,3-dihydro-1H-isoindol-4-yl]-4,7,10,13-tetraoxa-1-azapentadecan-15-yl}oxy)phenyl]-3-[ethyl(oxan-4-yl)amino]-2-methylbenzamide] | B (B = degradation between 30% and 60%)
13 | CCN(c1cc(-c2ccc(OCCCCCOCCOc3cc(-c4scnc4C)ccc3CNC(=O)[C@@H]3C[C@@H](O)CN3C(=O)[C@H](C(C)C)N3Cc4ccccc4C3=O)cc2)cc(C(=O)NCc2c(C)cc(C)[nH]c2=O)c1C)C1CCOCC1 [Compound 50, (2S,4R)-N-({2-[2-({5-[4-(3-{[(4,6-dimethyl-2-oxo-1,2-dihydropyridin-3-yl)methyl]carbamoyl}-5-[ethyl(oxan-4-yl)amino]-4-methylphenyl)phenoxy]pentyl}oxy)ethoxy]-4-(4-methyl-1,3-thiazol-5-yl)phenyl}methyl)-4-hydroxy-1-[(2S)-3-methyl-2-(1-oxo-2,3-dihydro-1H-isoindol-2-yl)butanoyl]pyrrolidine-2-carboxamide] | A (A = degradation more than 60%)
14 | CCN(c1cc(-c2ccc(CCCOCCCCC(=O)N[C@H](C(=O)N3C[C@H](O)C[C@H]3C(=O)NCc3ccc(-c4scnc4C)cc3)C(C)(C)C)cc2)cc(C(=O)NCc2c(C)cc(C)[nH]c2=O)c1C)C1CCOCC1 [Compound 44, (2S,4R)-1-[(2S)-2-(5-{3-[4-(3-{[(4,6-dimethyl-2-oxo-1,2-dihydropyridin-3-yl)methyl]carbamoyl}-5-[ethyl(oxan-4-yl)amino]-4-methylphenyl)phenyl]propoxy}pentanamido)-3,3-dimethylbutanoyl]-4-hydroxy-N-{[4-(4-methyl-1,3-thiazol-5-yl)phenyl]methyl}pyrrolidine-2-carboxamide] | B (B = degradation between 30% and 60%)

From patent US11857519B2, “Compounds and methods for the targeted degradation of enhancer of zeste homolog 2 polypeptide” (Arvinas Operations, Inc., priority 2016, dated 2024)
